Measured values as given in patent US12077503B2, “Substituted cyclic amides and their use as herbicides” (FMC CORPORATION, priority 2015, dated 2024).
Like-named read-outs stand apart in the source and are kept apart here.

Tests used:
Type in all cases: in vivo
[1] = test system: ragweed (common ragweed, Ambrosia elatior); assay: Test A preemergence; details: Ambrosia artemisiifolia, pre-emergence, 240 h; for pest or weed control at 125 g/ha: 125 g ai/ha; for pest or weed control at 500 g/ha: 500 g ai/ha
How it was run: (§1)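 Preemergence directed soil spray on seeded pots, or postemergence application to plants 2–10 cm, one- to two-leaf. Solvent mixture non-phytotoxic, with surfactant. Scored ~10 d later, visually, 0–100 vs untreated.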

[2] = test system: Galium (catchweed bedstraw, Galium aparine); assay: Test A postemergence; details: Galium, post-emergence, 240 h, postemergence; for pest or weed control at 125 g/ha: 125 g ai/ha
How it was run: as §1

[3] = test system: Kochia (Kochia scoparia); assay: Test A postemergence; details: Bassia scoparia, post-emergence, 240 h, postemergence; for pest or weed control at 125 g/ha: 125 g ai/ha
How it was run: as §1

[4] = test system: barnyardgrass (Echinochloa crus-galli); assay: Test A postemergence; details: Echinochloa crus-galli, post-emergence, 240 h; for pest or weed control at 125 g/ha: 125 g ai/ha
How it was run: as §1

[5] = test system: blackgrass (Alopecurus myosuroides); assay: Test A postemergence; details: Alopecurus myosuroides, post-emergence, 240 h; for pest or weed control at 125 g/ha: 125 g ai/ha
How it was run: as §1

[6] = test system: corn (Zea mays); assay: Test A postemergence; details: Zea mays, post-emergence, 240 h; for plant injury at 125 g/ha: visual injury rating after approximately 10 d, read-out: Corn plant response rating (0 to 100 scale, 0 no effect, 100 complete control)
How it was run: as §1

[7] = test system: giant foxtail (Setaria faberii); assay: Test A postemergence; details: Setaria faberi, post-emergence, 240 h, postemergence; for pest or weed control at 125 g/ha: 125 g ai/ha
How it was run: as §1

[8] = test system: pigweed (Amaranthus retroflexus); assay: Test A postemergence; details: Amaranthus retroflexus, post-emergence, 240 h, postemergence; for pest or weed control at 125 g/ha: 125 g ai/ha
How it was run: as §1

[9] = test system: ragweed (common ragweed, Ambrosia elatior); assay: Test A postemergence; details: Ambrosia artemisiifolia, post-emergence, 240 h, postemergence; for pest or weed control at 125 g/ha: 125 g ai/ha
How it was run: as §1

[10] = test system: ryegrass, Italian (Italian ryegrass, Lolium multiflorum); assay: Test A postemergence; details: Lolium multiflorum, post-emergence, 240 h, postemergence; for pest or weed control at 125 g/ha: 125 g ai/ha
How it was run: as §1

[11] = test system: wheat (Triticum aestivum); assay: Test A postemergence; details: Triticum aestivum, post-emergence, 240 h, postemergence; for plant injury at 125 g/ha: 125 g ai/ha
How it was run: as §1

[12] = test system: barnyardgrass (Echinochloa crus-galli); assay: Test B flooded paddy test; details: Echinochloa crus-galli, Flood, 250 g ai/ha; scale of 0 to 100 where 0 is no effect and 100 is complete control; read-out: Barnyardgrass plant response rating
How it was run: (§2)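 Plants at 2-leaf stage flooded to 3 cm above soil, with compounds applied directly to paddy water and that depth maintained. Plants kept in greenhouse 13–15 d. Visual rating versus controls on a 0 (no effect) to 100 (complete control) scale.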

[13] = test system: ducksalad (Heteranthera limosa); assay: Test B flooded paddy test; details: Heteranthera limosa, Flood, 250 g ai/ha; scale of 0 to 100 where 0 is no effect and 100 is complete control; read-out: Ducksalad plant response rating
How it was run: as §2

[14] = test system: rice (Oryra sativa); assay: Test B flooded paddy test; details: Oryza sativa, Flood, 250 g ai/ha; scale of 0 to 100 where 0 is no effect and 100 is complete control; read-out: Rice plant response rating
How it was run: as §2

[15] = test system: sedge, umbrella (small-flower umbrella sedge, Cyperus difformis); assay: Test B flooded paddy test; details: Cyperus difformis, Flood, 250 g ai/ha; scale of 0 to 100 where 0 is no effect and 100 is complete control; read-out: Sedge, Umbrella plant response rating
How it was run: as §2

[16] = preemergence, 0 to 100 scale where 0 is no effect and 100 is complete control, read-out: Ragweed plant response rating
[17] = Preemergence, visual injury vs untreated controls after approximately 10 d, read-out: Ragweed plant response rating (0 to 100 scale where 0 is no effect and 100 is complete control)
[18] = visual injury rating after approximately 10 d, read-out: Galium plant response rating (0 to 100 scale, 0 no effect, 100 complete control)
[19] = visual injury rating after approximately 10 d, read-out: Kochia plant response rating (0 to 100 scale, 0 no effect, 100 complete control)
[20] = postemergence, visual injury rating after approximately 10 d, read-out: Barnyardgrass plant response rating (0 to 100 scale, 0 no effect, 100 complete control)
[21] = visual injury rating after approximately 10 d, read-out: Foxtail, Giant plant response rating (0 to 100 scale, 0 no effect, 100 complete control)
[22] = visual injury rating after approximately 10 d, read-out: Pigweed plant response rating (0 to 100 scale, 0 no effect, 100 complete control)
[23] = visual injury rating after approximately 10 d, read-out: Ragweed plant response rating (0 to 100 scale, 0 no effect, 100 complete control)
[24] = visual injury rating after approximately 10 d, read-out: Ryegrass, Italian plant response rating (0 to 100 scale, 0 no effect, 100 complete control)
[25] = visual injury rating after approximately 10 d, read-out: Wheat plant response rating (0 to 100 scale, 0 no effect, 100 complete control)

## O=C1NC[C@H](c2ccc(F)c(OC(F)(F)C(F)(F)Br)c2)[C@H]1C(=O)Nc1cccc(F)c1F (racemic) [Compound 914]
[1]; [16]
  pest or weed control at 125 g/ha: 0%
[1]; [17]
  pest or weed control at 500 g/ha: 0%
[2]; [18]
  pest or weed control at 125 g/ha: 60%
[3]; [19]
  pest or weed control at 125 g/ha: 70%
[4]; [20]
  pest or weed control at 125 g/ha: 0%
[5]; postemergence, visual injury rating after approximately 10 d, read-out: Blackgrass plant response rating (0 to 100 scale, 0 no effect, 100 complete control)
  pest or weed control at 125 g/ha: 0%
[6]; 125 g ai/ha, postemergence
  plant injury at 125 g/ha: 0%
[7]; [21]
  pest or weed control at 125 g/ha: 70%
[8]; [22]
  pest or weed control at 125 g/ha: 80%
[9]; [23]
  pest or weed control at 125 g/ha: 20%
[10]; [24]
  pest or weed control at 125 g/ha: 0%
[11]; [25]
  plant injury at 125 g/ha: 0%
[12]
  pest or weed control at 250 g/ha: 0%
[13]
  pest or weed control at 250 g/ha: 50%
[14]
  pest or weed control at 250 g/ha: 15%
[15]
  pest or weed control at 250 g/ha: 0%

## CS(=O)(=O)c1ccccc1NC(=O)[C@H]1C(=O)NC[C@@H]1c1cc(F)c(C(F)(F)F)c(F)c1 [Compound 839]
[1]; [16]
  pest or weed control at 125 g/ha: 80%
[1]; [17]
  pest or weed control at 500 g/ha: 90%
[2]; [18]
  pest or weed control at 125 g/ha: 80%
[3]; [19]
  pest or weed control at 125 g/ha: 70%
[4]; [20]
  pest or weed control at 125 g/ha: 60%
[6]; 125 g ai/ha, postemergence
  plant injury at 125 g/ha: 30%
[7]; [21]
  pest or weed control at 125 g/ha: 60%
[8]; [22]
  pest or weed control at 125 g/ha: 80%
[9]; [23]
  pest or weed control at 125 g/ha: 60%
[10]; [24]
  pest or weed control at 125 g/ha: 50%
[11]; [25]
  plant injury at 125 g/ha: 50%
[12]
  pest or weed control at 250 g/ha: 0%
[13]
  pest or weed control at 250 g/ha: 70%
[14]
  pest or weed control at 250 g/ha: 0%
[15]
  pest or weed control at 250 g/ha: 0%

## CSc1ccccc1NC(=O)[C@H]1C(=O)NC[C@@H]1c1ccc(C)c(C)c1 [Compound 1036]
[1]; Preemergence, visual injury rating after approximately 10 d, read-out: Ragweed plant response rating (0 to 100 scale, 0 is no effect, 100 is complete control)
  pest or weed control at 125 g/ha: 0%
[1]; preemergence, visual injury rating about 10 d after treatment, 0 to 100 scale (0 no effect, 100 complete control), read-out: Ragweed plant response rating
  pest or weed control at 500 g/ha: 50%
[2]; visual injury on 0 to 100 scale (0 no effect, 100 complete control), approx. 10 d, read-out: Galium plant response rating
  pest or weed control at 125 g/ha: 20%
[2]; 500 g ai/ha, visual injury, 0 to 100 scale (0 no effect, 100 complete control), approx. 10 d, read-out: Plant response rating, Galium
  pest or weed control at 500 g/ha: 30%
[3]; visual injury on 0 to 100 scale (0 no effect, 100 complete control), approx. 10 d, read-out: Kochia plant response rating
  pest or weed control at 125 g/ha: 0%
[3]; 500 g ai/ha, visual injury, 0 to 100 scale (0 no effect, 100 complete control), approx. 10 d, read-out: Plant response rating, Kochia
  pest or weed control at 500 g/ha: 0%
[4]; Postemergence, visual injury after approximately 10 d, 0 to 100 scale where 0 is no effect and 100 is complete control, read-out: Plant response rating, Barnyardgrass
  pest or weed control at 125 g/ha: 70%
[4]; 500 g ai/ha, postemergence, visual injury, 0 to 100 scale (0 no effect, 100 complete control), approx. 10 d, read-out: Plant response rating, Barnyardgrass
  pest or weed control at 500 g/ha: 90%
[5]; Postemergence, visual injury after approximately 10 d, 0 to 100 scale where 0 is no effect and 100 is complete control, read-out: Plant response rating, Blackgrass
  pest or weed control at 125 g/ha: 0%
[5]; 500 g ai/ha, postemergence, visual injury, 0 to 100 scale (0 no effect, 100 complete control), approx. 10 d, read-out: Plant response rating, Blackgrass
  pest or weed control at 500 g/ha: 0%
[6]; 125 g ai/ha, Postemergence, visual injury after approximately 10 d, 0 to 100 scale where 0 is no effect and 100 is complete control
  Corn plant response rating (crop injury, 0 = no effect, 100 = complete kill) at 125 g/ha: 0%
[6]; 500 g ai/ha, postemergence, visual injury, 0 to 100 scale (0 no effect, 100 complete control), approx. 10 d
  Corn plant response rating (crop injury, 0 = no effect, 100 = complete kill) at 500 g/ha: 20%
[7]; visual injury on 0 to 100 scale (0 no effect, 100 complete control), approx. 10 d, read-out: Foxtail, Giant plant response rating
  pest or weed control at 125 g/ha: 0%
[7]; 500 g ai/ha, visual injury, 0 to 100 scale (0 no effect, 100 complete control), approx. 10 d, read-out: Plant response rating, Foxtail, Giant
  pest or weed control at 500 g/ha: 60%
[8]; visual injury on 0 to 100 scale (0 no effect, 100 complete control), approx. 10 d, read-out: Pigweed plant response rating
  pest or weed control at 125 g/ha: 0%
[8]; 500 g ai/ha, visual injury, 0 to 100 scale (0 no effect, 100 complete control), approx. 10 d, read-out: Plant response rating, Pigweed
  pest or weed control at 500 g/ha: 0%
[9]; visual injury on 0 to 100 scale (0 no effect, 100 complete control), approx. 10 d, read-out: Ragweed plant response rating
  pest or weed control at 125 g/ha: 0%
[9]; 500 g ai/ha, visual injury, 0 to 100 scale (0 no effect, 100 complete control), approx. 10 d, read-out: Plant response rating, Ragweed
  pest or weed control at 500 g/ha: 10%
[10]; visual injury on 0 to 100 scale (0 no effect, 100 complete control), approx. 10 d, read-out: Ryegrass, Italian plant response rating
  pest or weed control at 125 g/ha: 0%
[10]; 500 g ai/ha, visual injury, 0 to 100 scale (0 no effect, 100 complete control), approx. 10 d, read-out: Plant response rating, Ryegrass, Italian
  pest or weed control at 500 g/ha: 60%
[11]; visual injury on 0 to 100 scale (0 no effect, 100 complete control), approx. 10 d, read-out: Wheat plant response rating
  plant injury at 125 g/ha: 0%
[11]; 500 g ai/ha, visual injury, 0 to 100 scale (0 no effect, 100 complete control), approx. 10 d, read-out: Plant response rating, Wheat
  plant injury at 500 g/ha: 20%
